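Interpolation was linear, between the two tested concentrations surrounding the appropriate level; five concentrations were tested over 48 hours in 96-well plates. GI50 is the concentration that inhibits growth by half.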 Calls of active or inactive are those of the source. Cut-off read from the data, not from the text of the source: active = GI50 up to about 1.1 µM and inactive = higher.
Key:
Experiment in all cases: growth of human tumour cells (NCI), 48 h
ACHN = system: ACHN
SK-MEL-5 = system: SK-MEL-5
DLD-1 = system: DLD-1
SW-620 = system: SW-620
OVCAR-3 = system: OVCAR-3
CAKI-1 = system: CAKI-1
RPMI-8226 = system: RPMI-8226
Malme-3M = system: Malme-3M
OVCAR-4 = system: OVCAR-4
EKVX = system: EKVX
NCI-H226 = system: NCI-H226
786-0 = system: 786-0
M19-MEL = system: M19-MEL
DMS-273 = system: DMS-273
COLO 205 = system: COLO 205
LXFL 529 = system: LXFL 529
KM-20L2 = system: KM-20L2
HOP-18 = system: HOP-18
SNB-78 = system: SNB-78
SNB-75 = system: SNB-75
RXF 631 = system: RXF 631
A498 = system: A498
HCT-15 = system: HCT-15
SN12C = system: SN12C
HOP-62 = system: HOP-62
SF-295 = system: SF-295
KM12 = system: KM12
CCRF-CEM = system: CCRF-CEM
NCI-H23 = system: NCI-H23
HL-60 = system: HL-60
SNB-19 = system: SNB-19
LOX IMVI = system: LOX IMVI
U-251 = system: U-251
RXF 393 = system: RXF 393
HCC 2998 = system: HCC 2998
UO-31 = system: UO-31
UACC-257 = system: UACC-257
IGROV-1 = system: IGROV-1
NCI-H460 = system: NCI-H460
A549 = system: A549
SK-MEL-28 = system: SK-MEL-28
MOLT-4 = system: MOLT-4
OVCAR-8 = system: OVCAR-8
UACC-62 = system: UACC-62
XF498 = system: XF498
HT-29 = system: HT-29
SF-539 = system: SF-539
TK-10 = system: TK-10
M14 = system: M14
SF-268 = system: SF-268
HCT-116 = system: HCT-116
NCI-H522 = system: NCI-H522
SK-OV-3 = system: SK-OV-3
K562 = system: K562
OVCAR-5 = system: OVCAR-5
SR = system: SR
DMS-114 = system: DMS-114
SK-MEL-2 = system: SK-MEL-2
HOP-92 = system: HOP-92

Question: What does the source list for `O=[N+]([O-])c1cc([N+](=O)[O-])c(C(Cl)C(Cl)c2ccccc2)cc1C(Cl)C(Cl)c1ccccc1` (centres undefined)?
Answer: GI50 (ACHN): 1770 nM (inactive); GI50 (SK-MEL-5): 1660 nM (inactive); GI50 (DLD-1): 1710 nM (inactive); GI50 (SW-620): 1610 nM (inactive); GI50 (OVCAR-3): 2200 nM (inactive); GI50 (CAKI-1): 1710 nM (inactive); GI50 (RPMI-8226): 1070 nM (active); GI50 (Malme-3M): 1760 nM (inactive); GI50 (OVCAR-4): 2640 nM (inactive); GI50 (EKVX): 2200 nM (inactive); GI50 (NCI-H226): 2230 nM (inactive); GI50 (786-0): 1690 nM (inactive); GI50 (M19-MEL): 1830 nM (inactive); GI50 (DMS-273): 2030 nM (inactive); GI50 (COLO 205): 1730 nM (inactive); GI50 (LXFL 529): 1540 nM (inactive); GI50 (KM-20L2): 2060 nM (inactive); GI50 (HOP-18): 1460 nM (inactive); GI50 (SNB-78): 2990 nM (inactive); GI50 (SNB-75): 2470 nM (inactive); GI50 (RXF 631): 2070 nM (inactive); GI50 (A498): 1820 nM (inactive); GI50 (HCT-15): 1480 nM; GI50 (SN12C): 1750 nM (inactive); GI50 (HOP-62): 3660 nM (inactive); GI50 (SF-295): 2150 nM (inactive); GI50 (KM12): 1850 nM (inactive); GI50 (CCRF-CEM): 2210 nM (inactive); GI50 (NCI-H23): 1650 nM (inactive); GI50 (HL-60): 7290 nM (inactive); GI50 (SNB-19): 2320 nM (inactive); GI50 (LOX IMVI): 1640 nM (inactive); GI50 (U-251): 1820 nM (inactive); GI50 (RXF 393): 1330 nM (inactive); GI50 (HCC 2998): 1760 nM (inactive); GI50 (UO-31): 1510 nM (inactive); GI50 (UACC-257): 1840 nM (inactive); GI50 (IGROV-1): 2460 nM (inactive); GI50 (NCI-H460): 2020 nM (inactive); GI50 (A549): 2050 nM (inactive); GI50 (SK-MEL-28): 1900 nM (inactive); GI50 (MOLT-4): 2300 nM (inactive); GI50 (OVCAR-8): 1870 nM (inactive); GI50 (UACC-62): 1840 nM (inactive); GI50 (XF498): 1870 nM (inactive); GI50 (HT-29): 2170 nM (inactive); GI50 (SF-539): 1800 nM (inactive); GI50 (TK-10): 2340 nM (inactive); GI50 (M14): 1490 nM (inactive); GI50 (SF-268): 1770 nM (inactive); GI50 (HCT-116): 1190 nM (inactive); GI50 (NCI-H522): 1610 nM (inactive); GI50 (SK-OV-3): 6340 nM (inactive); GI50 (K562): 1690 nM (inactive); GI50 (OVCAR-5): 2140 nM (inactive); GI50 (SR): 3180 nM (inactive); GI50 (DMS-114): 1700 nM (inactive); GI50 (SK-MEL-2): 2000 nM (inactive); GI50 (HOP-92): 1600 nM (inactive)

— ChEMBL document CHEMBL1201862, “PubChem BioAssay data set” (2004)
